Assay results reported in patent US6943191B1, “Disubstituted lavendustin A analogs and pharmaceutical composition comprising the analogs” (The United States of America as represented by the …, priority 1998, dated 2005).
Where two headings read alike, the source gives them in different places.

Columns and labels:
p210^bcr-abl = target: T1, p210^bcr-abl (Homo sapiens, UniProt P00519); experiment: Inhibition of in vitro auto-phosphorylation of p210^bcr-abl, immune-complex kinase assay; assay type: biochemical; details: immune complex kinase assay, 3 experiments, read-out: Enzyme Assays IC50 (μM) p210bcl-abl in vitro phosphorylation
T1 construct: immune complexes containing ^32P-labeled p210^bcr-abl were collected on protein Sepharose beads; BCR (N-terminal part of the breakpoint cluster region protein, natural fusion partner); endogenous in cells; host or cells: K562 cells (lysate, immunoprecipitated on Protein A-Sepharose); the other entry of the earlier key: BCR (P11274, Breakpoint cluster region protein)
T1 sequence (P00519 with tags, fused parts or gaps): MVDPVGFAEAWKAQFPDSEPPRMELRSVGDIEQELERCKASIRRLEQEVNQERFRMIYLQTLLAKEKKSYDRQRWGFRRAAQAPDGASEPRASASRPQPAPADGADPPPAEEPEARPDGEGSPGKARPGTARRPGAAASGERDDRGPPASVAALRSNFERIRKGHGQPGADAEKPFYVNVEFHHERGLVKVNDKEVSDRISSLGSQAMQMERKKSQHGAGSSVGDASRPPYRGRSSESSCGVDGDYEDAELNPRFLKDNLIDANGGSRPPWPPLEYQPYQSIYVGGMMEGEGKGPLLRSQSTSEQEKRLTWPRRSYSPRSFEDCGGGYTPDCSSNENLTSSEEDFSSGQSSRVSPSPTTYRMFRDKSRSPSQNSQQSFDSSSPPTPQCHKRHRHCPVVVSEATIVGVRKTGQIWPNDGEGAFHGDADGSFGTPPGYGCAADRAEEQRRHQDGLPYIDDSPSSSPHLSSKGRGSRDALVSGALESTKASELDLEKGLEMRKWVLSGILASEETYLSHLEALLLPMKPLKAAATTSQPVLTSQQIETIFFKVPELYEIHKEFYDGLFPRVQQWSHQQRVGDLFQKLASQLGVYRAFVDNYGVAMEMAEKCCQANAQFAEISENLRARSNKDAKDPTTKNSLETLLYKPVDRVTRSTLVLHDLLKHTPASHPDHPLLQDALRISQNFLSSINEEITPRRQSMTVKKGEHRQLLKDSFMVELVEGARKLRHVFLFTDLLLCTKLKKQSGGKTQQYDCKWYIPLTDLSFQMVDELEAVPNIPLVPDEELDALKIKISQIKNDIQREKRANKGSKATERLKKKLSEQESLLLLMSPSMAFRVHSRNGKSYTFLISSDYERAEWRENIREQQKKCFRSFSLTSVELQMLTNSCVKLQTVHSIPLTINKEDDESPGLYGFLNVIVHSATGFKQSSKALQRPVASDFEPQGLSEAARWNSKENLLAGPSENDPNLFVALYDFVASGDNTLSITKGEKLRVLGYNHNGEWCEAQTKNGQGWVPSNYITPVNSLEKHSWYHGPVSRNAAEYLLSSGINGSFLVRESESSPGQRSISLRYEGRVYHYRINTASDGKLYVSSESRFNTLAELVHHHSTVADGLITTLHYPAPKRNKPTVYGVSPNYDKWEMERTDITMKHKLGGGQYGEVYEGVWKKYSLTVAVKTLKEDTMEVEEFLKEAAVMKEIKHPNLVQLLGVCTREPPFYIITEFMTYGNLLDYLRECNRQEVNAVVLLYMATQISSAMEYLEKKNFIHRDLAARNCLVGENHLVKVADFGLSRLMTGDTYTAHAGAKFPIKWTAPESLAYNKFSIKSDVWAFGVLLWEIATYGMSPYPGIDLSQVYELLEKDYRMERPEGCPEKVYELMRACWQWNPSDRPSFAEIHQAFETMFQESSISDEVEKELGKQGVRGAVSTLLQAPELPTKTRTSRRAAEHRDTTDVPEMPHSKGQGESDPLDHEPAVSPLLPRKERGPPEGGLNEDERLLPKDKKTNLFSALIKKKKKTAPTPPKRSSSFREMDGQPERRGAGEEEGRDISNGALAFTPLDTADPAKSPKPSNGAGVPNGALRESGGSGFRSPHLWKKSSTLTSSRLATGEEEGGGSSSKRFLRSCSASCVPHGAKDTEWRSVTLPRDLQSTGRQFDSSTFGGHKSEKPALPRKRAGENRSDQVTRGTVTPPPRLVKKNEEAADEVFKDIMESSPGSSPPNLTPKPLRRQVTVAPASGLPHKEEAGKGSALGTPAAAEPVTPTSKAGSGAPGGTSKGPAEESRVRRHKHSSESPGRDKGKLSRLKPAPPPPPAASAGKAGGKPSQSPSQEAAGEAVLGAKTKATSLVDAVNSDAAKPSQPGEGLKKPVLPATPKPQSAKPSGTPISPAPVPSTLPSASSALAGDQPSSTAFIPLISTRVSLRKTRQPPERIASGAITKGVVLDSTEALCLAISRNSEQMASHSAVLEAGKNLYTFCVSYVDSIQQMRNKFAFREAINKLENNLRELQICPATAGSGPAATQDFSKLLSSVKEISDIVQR
Experimental: Inhibition of in vitro auto-phosphorylation of p210^bcr-abl in immune-complex kinase assays were conducted as follows. K562 cell line cells were washed twice in […]. The washed cells were lysed in PLC lysis buffer 150 mM HEPES (pH 7.5), 150 mM NaCl, 10% (v/v) glycerol, 1% (v/v) Triton X-100, 1.5 mM MgCl2, 1 mM EGTA. 10 μg/ml leupeptin, 10 μg/ml aprotinin, 1 mM sodium orthovanadate. 10 mM sodium pyrophosphate, 100 mM sodium fluoride and 1 mM phenylmethyl sulfonyl fluoride| Cell lysates were centrifuged at 100,000 g for 15 minutes and the supernatant collected. Protein concentrations of the clarified supernatants were determined by the Bradford Protein Assay, and the same quantity of protein was immunoprecipitated from control (vehicle-treated) and drug-treated cells. Cell lysates were incubated and gently rocked at 4° C. for 4 hours overnight with antibodies. Immune complexes were collected by incubation with Protein A-Sepharose beads (Pharmacia, Piscataway N.J.) and immune complexes (beads) were washed three times with HNTG buffer [20 mM HEPES (pH 7.5), 10% glycerol, 0.1% Triton X-100, 150 mM NaCl and 1 mM sodium orthovanadate] to remove unbound material. Bound proteins were boiled for 5 minutes in 2×SDS sample buffer (63 mM Tris-HCl, ph 6.8; 10% glycerol; 2% SDS; 0.0025% bromophenol blue: and […] 2 mercaptoethanol) prior to SDS-PAGE. Proteins were resolved on 4-20% gradient mini gels from Novex Experimental Technology (San Diego, Calif.).
After SDS-PAGE, proteins were electrophoretically transferred onto Immobilon polyvinylidene difluoride (PVDF) membranes (Millipore, Bedford, Mass.) at 250 mA for 4 hours at 4° C. using 2× Tris glycine transfer buffer (50 mM Tris, glycine), 20% methanol and 0.1% SDS. Residual binding sites on the membrane were blocked by incubation in TTS (20 mM Tris pH 7.4, 0.9% NaCl and 0.05% Tween 20) containing 3% BSA overnight at 4° C. or for 4 hours at room temperature. Blots were incubated for 1-1.5 hours with TTS containing 0.3% BSA with 1 μg/ml of mouse anti-P-Tyr, 2 μg/ml of mouse anti-Grb2 or 1 μg/ml of rabbit anti-She antibody. Blots were washed three times for 6 minutes each with TTS containing 0.3% BSA and probed with a 1:1000 dilution of rabbit anti-mouse antibody or directly with [^125I]Protein A (Amersham, Arlington Heights, Ill.) in blocking solutions. Proteins were visualized by autoradiography (exposed for 1-2 days at −70° C.).
The p210^bcr-abl, protein immunoprecipitates were washed twice with HTNG buffer Immunoprecipitates were washed once with 50 mM Tris (pH 7.0) and distributed to each reaction in 20 μl of 20 mM PIPES [piperazine-N,N′-bis(ethanesulfonic acid)] (pH 7.0)−20 mM MnCl2. Then, 10 μl of compounds made according to the present invention at desired concentrations from working stock solution prepared in 20 mM PIPEs (pH 7.0)−20 mM MnCl2 were added to each reaction tube. Reactions were initiated with the addition of 10 μl of [γ-^33P]ATP (10 μCi per sample, 3000 Ci/mmol; Amersham), incubated for 20 minutes at 30° C., stopped by addition of 10 μl of 5×SDS sample buffer, heated at 100° C. for 5 minutes, and analyzed on 4-20% SDS-PAGE and by autoradiography.
To assess the effect of drugs added in vitro on the state of p210^bcr-abl in the immune complexes, K562 cells were labeled with ^32P, lysed in PLC buffer and immune complexes containing ^32P-labeled p210^bcr-abl were collected on protein Sepharose beads and beads were washed four times with HNTG buffer. Immune complexes were divided into several tubes in 30 μl of PLC buffer in the presence of compounds made as described herein.

K562 cells = experiment: K562 cell culture and growth assay, 6 day MTT; assay type: cell-based, human; details: K562, 6 days, 4 or more experiments
Experimental: This example describes the procedure used for cell culture and growth assays. Human leukemia, Philadelphia-chromosome-positive CML cell line K562 was obtained from ATCC (Rockville, Md.). Cells were cultured in RPMI medium containing 10% fetal calf serum, 2 mM glutamine, 100 units/ml of penicillin and 100 μg/ml streptomycin Cells (2×10^3 cells/well) were incubated with increasing concentrations of compounds of the present invention dissolved in DMSO in a final volume of 200 μl in 96-well plates. Control cells were incubated with medium containing identical concentrations of the DMSO solvent. Growth of K562 cells was quantitated after 6 days by ability of living cells to reduce the yellow dye 3-(4,5-dimethylthiazolyl)-2,5-diphenyltetrazolium bromide (MTT) to a blue formazan product. Further information concerning this procedure is provided by Mossman T., “Rapid Colorimetric Assay for Cellular Growth and Survival—Application to Proliferation and Cytotoxicity Assays,” J. Immunol. Methods 1983, 65:55-63, which is incorporated herein by reference.

[1] = test system: panel of approximately 60 different human tumor cell lines; experiment: National Cancer Institute drug screen, mean-graph parameters; assay type: cell-based; details: mean over cell line panel, two days exposure; for GI50: Homo sapiens, 48 h
Experimental: Compounds of the present invention also have been subjected to the drug screening procedure employed by the National Cancer Institute for the screening of drugs having possible anticancer utility. The screening procedure uses a diverse, disease-oriented panel consisting of approximately 60 different human tumor cell lines organized into disease-specific subpanels. The compounds of the present invention were tested over a range of concentrations for cytotoxic or growth-inhibitory effects against cell lines comprising the panel. The eight subpanels represented diverse histologies (leukemias, melanomas, and tumors of the lung, colon, kidney, breast, ovary, and brain).
Compounds of the present invention were tested over a period of two days. During this period the cells were continuously exposed to various concentrations of the compounds tested. The tests produced individual dose-responses, one for each cell line (i.e. one for each example), and the data were represented in dose-response curves. The data provided by these dose response curves were summarized using a mean-graph format.
To produce data for the mean-graph format, a compound concentration that produced a target level response was calculated for each cell line. Three different response parameters were evaluated. The first response parameter was the growth inhibition (“GI50”). GI50 is the concentration of compounds made according to the present invention that produced an apparent 50% decrease in the number of tumor cells relative to the appropriate control (not exposed to the compounds of the present invention) at the end of the incubation period.
The second response parameter was the total growth inhibition (“TGI”). TGI is the concentration at which the number of tumor cells remaining at the end of the incubation period substantially equal the number of tumor cells existing at the start of the incubation period.
The third response parameter was the lethal concentration (“LC50”) LC50 is the concentration of compounds made according to the present invention that caused an apparent 50 percent reduction in the number of tumor cells […] at the start of the incubation period.
In a typical GI50 mean graph, the relative position of the vertical reference line along the horizontal concentration axis was obtained by averaging the negative log10GI50 values for all the cell lines tested against the compound. Horizontal bars were then plotted for the individual negative log10GI50 values of each cell line relative to the vertical reference line. The GI50 graph thus provided a characteristic fingerprint for the compound, displaying the individual cell lines that are proportionately more sensitive than average (bars extending to the right of the reference line) or proportionately less sensitive than average (bars extending to the left of the reference line). The length of a bar was proportional to the difference between the log10GI50 value obtained with the particular cell line and the mean (represented by the vertical reference line).
Similar mean graphs were prepared for the TGI and LC50 response parameters.

[2] = Homo sapiens, 144 h, Table 10, mean ± S.E., read-out: IC50 (μM) 6dMTT
[3] = Table 10, read-out: Tumor Cell Mean log GI50 (converted)
[4] = Table 9, mean ± S.E., read-out: IC50 (μM) 6dMTT
[5] = Homo sapiens, 144 h, Table 8, mean+S.E., read-out: IC50 (μM) 6 dMTT
[6] = Homo sapiens, 144 h, Table 9, mean ± S.E., read-out: IC50 (μM) 6dMTT
[7] = Table 9, read-out: Tumor cell Mean log GI50 (converted)

| Compound | IC50 (p210^bcr-abl; Table 9, mean ± S.E.) | IC50 (p210^bcr-abl; Table 8, mean+S.E.) | IC50 (K562 cells; [5]) | Tumor Cell Mean log TGI ([1]; Table 9) | Tumor Cell Mean log GI50 ([1]; Table 8) | Tumor Cell Mean log TGI ([1]; Table 8) | also measured |
| --- | --- | --- | --- | --- | --- | --- | --- |
| COC(=O)c1ccc(CCc2cc(O)ccc2O)cc1 |  |  |  |  |  |  | IC50 (p210^bcr-abl; Table 10, mean ± S.E.): 2.64 ± 0.99 µM; IC50 (K562 cells; [2]): 18.5 ± 5.62 µM; GI50 [1, 3]: 10 µM; Tumor Cell Mean log TGI ([1]; Table 10): −4.43 |
| CC(C)OC(=O)c1ccc(CCc2cc(O)c(Br)cc2O)cc1 |  |  |  |  |  |  | IC50 (p210^bcr-abl; Table 10, mean ± S.E.): 5.77 ± 0.53 µM; IC50 (K562 cells; [2]): 20 ± 0.7 µM; GI50 [1, 3]: 7.59 µM; Tumor Cell Mean log TGI ([1]; Table 10): −4.50 |
| O=C(O)c1ccc(CCc2cc(O)ccc2O)cc1O |  |  |  |  |  |  | IC50 (p210^bcr-abl; Table 10, mean ± S.E.): 13 ± 1.03 µM; IC50 (K562 cells; Table 10, mean ± S.E., read-out: IC50 (μM) 6dMTT): 33.4 ± 4.8 µM; Tumor Cell Mean log GI50 ([1]; Table 10): −4.06; Tumor Cell Mean log TGI ([1]; Table 10): −4.01 |
| COC(=O)c1cc(NCc2cc(O)cc(Br)c2O)ccc1Cl [4′-chloro-5′-methylbenzoate-1′-N-3-bromo-2,5-dihydroxybenzylamine] | 3.56 ± 0.53 µM |  |  | −4.43 |  |  | IC50 (K562 cells; [4]): 8.9 ± 0.5 µM; Tumor Cell Mean log GI50 ([1]; Table 9): −4.86 |
| Oc1ccc(O)c(CNc2ccc(C(O)C(F)(F)F)cc2)c1 (centres unmarked) [CH(OH)CF3 / H / H, 4′-(trifluoromethylethanol)-1′-N-2,5-dihydroxybenzylamine] |  | 0.57 µM | 14.3 µM |  | −4.82 | −4.34 |  |
| NC(=O)c1ccc(NCC2=CC(=O)C=CC2=O)cc1 [CONH2 / H / 2,5-quinoyl] | 5.1 ± 0.3 µM |  |  | −4.31 |  |  | IC50 (K562 cells; [4]): 21.7 ± 2.27 µM; Tumor Cell Mean log GI50 ([1]; Table 9): −4.59 |
| NC(=O)c1ccc(NCc2cc(O)ccc2O)cc1 [CONH2 / H / H] |  | 4.23 µM | 20.9 µM |  | −4.53 | −4.26 |  |
| CC(C)N(C(=O)c1ccc(NCc2cc(O)ccc2O)cc1)C(C)C [CON[CH(CH3)2]2 / H / H, 4′-diisopropylbenzamide-N-2,5-dihydroxybenzylamine] |  | 2.36 µM | 18.2 µM |  | −4.88 | −4.36 |  |
| CC(C)(C)OC(=O)c1ccc(NCC2=CC(=O)C=CC2=O)cc1 [COOC(CH3)3 / H / 2,5-quinoyl] | 25.9 ± 9.02 µM |  |  | −4.67 |  |  | IC50 (K562 cells; [6]): 25.4 ± 1.88 µM; GI50 [1, 7]: 8.13 µM |
| O=C1C=CC(=O)C(CNc2ccc(C(=O)OCc3ccccc3)cc2)=C1 [COOCH2—C6H6 / H / 2,5-quinoyl] | 8.75 ± 1.25 µM |  |  | −4.78 |  |  | IC50 (K562 cells; [6]): 22.8 ± 18 µM; GI50 [1, 7]: 5.01 µM |
| COC(=O)c1ccc(NCC2=CC(=O)C=CC2=O)cc1 [COOCH3 / H / 2,5-quinoyl] | 15.9 ± 2.91 µM |  |  | −4.8 |  |  | IC50 (K562 cells; [6]): 15.1 ± 1.28 µM; GI50 [1, 7]: 2.51 µM |
| COC(=O)c1ccc(NCc2cc(O)ccc2O)cc1O [COOCH3 / OH / H] |  | 6.44 µM | 17.7 µM |  | −5.23 | −4.70 |  |
| COC(=O)c1ccc(NCC2=CC(=O)C=CC2=O)cc1O [Compound 20, 3′-hydroxy-4′-methylbenzoate-1′-N-p-quinone-2-methyl amine] | 5.15 ± 1.01 µM |  |  | −4.36 |  |  | IC50 (K562 cells; [6]): 17 ± 0.3 µM; GI50 [1, 7]: 17 µM |
| CC(C)OC(=O)c1ccc(NCC2=CC(=O)C=CC2=O)cc1 [Compound 21, 4′-isopropylbenzoate-1′-N-p-quinone-2-methyl amine] | 13.7 ± 5.78 µM |  |  | −4.55 |  |  | IC50 (K562 cells; [6]): 17.4 ± 1 µM; GI50 [1, 7]: 26.9 µM |

The next lines start with results.

| IC50 (p210^bcr-abl; Table 9, mean ± S.E.) | IC50 (p210^bcr-abl; Table 8, mean+S.E.) | IC50 (K562 cells; [5]) | Compound | Tumor Cell Mean log TGI ([1]; Table 9) | Tumor Cell Mean log GI50 ([1]; Table 8) | Tumor Cell Mean log TGI ([1]; Table 8) | also measured |
| --- | --- | --- | --- | --- | --- | --- | --- |
|  | 2.9 µM |  | COC(=O)c1ccc(NCc2cc(O)ccc2O)cc1 [COOCH3 / H / H, reference compound] |  | −4.95 | −4.52 | IC50 (K562 cells; Table 8, mean+S.E., read-out: IC50 (μM) 6 dMTT): 16.6 µM |
|  | 18.5 µM | 41.9 µM | O=C(O)c1ccc(NCc2cc(O)ccc2O)cc1 [COOH / H / H] |  | −4.96 | −4.60 |  |
|  | 1.03 µM | 13 µM | CC(=O)c1ccc(NCc2cc(O)ccc2O)cc1 [Compound 17, 4′-acetophenone-1′-N-2,5-dihydroxybenzylamine] |  | −4.72 | −4.25 |  |
